Source: US11299478B2, “2-cyanopyrimidin-4-yl carbamate or urea derivative or salt thereof, and pharmaceutical composition including same” (HANLIM PHARMACEUTICAL CO., LTD., priority 2018, dated 2022)

Legend:
Assay type in all cases: biochemical
cathepsin K = molecular target: T1, cathepsin K (Homo sapiens, UniProt P43235); test: Inhibitory activity assay against cathepsin K (enzyme assay); conditions: Z-Phe-Arg-AMC 10 μM, enzyme 1 nM, pH 5.5, 30 minutes
T1 sequence (P43235 115-329): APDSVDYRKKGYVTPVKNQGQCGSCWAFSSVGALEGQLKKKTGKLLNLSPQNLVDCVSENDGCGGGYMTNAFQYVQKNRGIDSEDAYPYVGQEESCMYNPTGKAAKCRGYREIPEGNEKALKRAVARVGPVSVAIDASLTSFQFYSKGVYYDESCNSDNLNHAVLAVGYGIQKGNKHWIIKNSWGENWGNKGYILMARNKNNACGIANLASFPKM
Summary of the method: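 Fluorogenic assay with 1 nM cathepsin K and 10 μM Z-Phe-Arg-AMC in pH 5.5 buffer (50 mM MES, 2 mM DTT, 2.5 mM EDTA, 0.01% Triton X-100, 10% DMSO). Ten compound concentrations, 10.0 to 0.000508 μM; 30 min reaction, ex 355/em 460 nm; IC50 by 4-parameter logistic fit.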

cathepsin B = cathepsin B (Homo sapiens, UniProt P07858); test: Inhibitory activity assay against cathepsin B (enzyme assay); conditions: Z-Arg-Arg-AMC 40 μM, enzyme 1 nM, pH 6.0, 90 minutes
Summary of the method: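 1 nM enzyme with 40 μM Z-Arg-Arg-AMC and compound (10.0 μM down to 0.000508 μM, 10 points) in pH 6.0 buffer of 50 mM MES, 5 mM DTT, 2.5 mM EDTA, 0.005% Polysorbate 20, 10% DMSO. Fluorescence (340/460 nm) read after 90 min; IC50 by 4-parameter logistic fit.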

cathepsin L = cathepsin L (Homo sapiens, UniProt P07711); test: Inhibitory activity assay against cathepsin L (enzyme assay); conditions: Z-Phe-Arg-AMC 2 μM, enzyme 3 nM, pH 5.5, 30 minutes
cathepsin L, sequence (P07711 114-333, species assumed): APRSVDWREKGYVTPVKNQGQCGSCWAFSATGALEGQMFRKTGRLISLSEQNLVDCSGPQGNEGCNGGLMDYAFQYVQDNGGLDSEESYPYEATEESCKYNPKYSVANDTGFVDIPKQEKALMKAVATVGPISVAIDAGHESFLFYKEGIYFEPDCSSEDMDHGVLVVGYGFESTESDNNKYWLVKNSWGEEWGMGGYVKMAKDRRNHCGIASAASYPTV
Summary of the method: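 Enzyme at 3 nM with 2 μM Z-Phe-Arg-AMC in 50 mM MES pH 5.5, 2.5 mM DTT, 2.5 mM EDTA, 0.005% Polysorbate 20, 10% DMSO; 30 min reaction, AMC fluorescence 340/460 nm. Ten-point series 10.0 μM to 0.000508 μM; IC50 by 4-parameter logistic fit.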

cathepsin S = cathepsin S (Homo sapiens, UniProt P25774); test: Inhibitory activity assay against cathepsin S (enzyme assay); conditions: Z-Phe-Arg-AMC 70 μM, enzyme 3 nM, pH 6.5, 45 minutes
cathepsin S, sequence (P25774 115-331, species assumed): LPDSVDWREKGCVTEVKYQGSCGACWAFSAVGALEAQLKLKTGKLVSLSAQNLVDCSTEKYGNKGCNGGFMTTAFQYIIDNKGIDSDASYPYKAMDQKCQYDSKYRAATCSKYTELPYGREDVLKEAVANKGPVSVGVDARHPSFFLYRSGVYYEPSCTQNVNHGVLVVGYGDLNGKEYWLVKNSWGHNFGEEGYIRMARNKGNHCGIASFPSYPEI
Summary of the method: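 Cathepsin S (3 nM final) with Z-Phe-Arg-AMC substrate (70 μM final) in pH 6.5 buffer of 50 mM MES, 2.5 mM DTT, 1.0 mM EDTA, 0.001% BSA, 10% DMSO; compound 10.0 μM down to 0.000508 μM, 10 points. Fluorescence (ex 340/em 460 nm) after 45 min; IC50 by 4-parameter logistic fit.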

Compound	IC50 (cathepsin K) [nM]	IC50 (cathepsin B) [nM]	IC50 (cathepsin L) [nM]	IC50 (cathepsin S) [nM]
N#Cc1nccc(C2(NC(=O)Nc3ccc(Br)cc3F)CCCCC2)n1 [Example 134, 1-(4-bromo-2-fluorophenyl)-3-(1-(2-cyanopyrimidin-4-yl)cyclohexyl)urea]	5.3	> 10000	> 10000	> 10000
N#Cc1nccc(C2(NC(=O)Nc3ccc(I)c(C(F)(F)F)c3)CCCCC2)n1 [Example 136, 1-(1-(2-cyanopyrimidin-4-yl)cyclohexyl)-3-(4-iodo-3-(trifluoromethyl)phenyl)urea]	24.5	> 10000	> 10000	> 10000
N#Cc1nccc(C2(NC(=O)Nc3ccc(I)c(F)c3)CCCCC2)n1 [Example 137, 1-(1-(2-cyanopyrimidin-4-yl)cyclohexyl)-3-(3-fluoro-4-iodophenyl)urea]	38.2	> 10000	> 10000	6220
CN1CCN(c2ccc(NC(=O)NC3(c4ccnc(C#N)n4)CCCCC3)cc2)CC1 [Example 138, 1-(1-(2-cyanopyrimidin-4-yl)cyclohexyl)-3-(4-(4-methylpiperazin-1-yl)phenyl)urea]	5.8	> 10000	4200	≥ 10000
N#Cc1nccc(C2(NC(=O)Nc3ccc(N4CCOCC4)cc3)CCCCC2)n1 [Example 139, 1-(1-(2-cyanopyrimidin-4-yl)cyclohexyl)-3-(4-morpholinophenyl)urea]	12.2	> 10000	7030	> 10000
N#Cc1nccc(C2(NC(=O)Nc3ccc(N4CCNCC4)cc3)CCCCC2)n1 [Example 140, 1-(1-(2-cyanopyrimidin-4-yl)cyclohexyl)-3-(4-(piperazin-1-yl)phenyl)urea]	21.5	> 10000	6570	> 10000
CN(C)C1CCN(c2ccc(NC(=O)NC3(c4ccnc(C#N)n4)CCCCC3)cc2)CC1 [Example 141, 1-(1-(2-cyanopyrimidin-4-yl)cyclohexyl)-3-(4-(4-(dimethylamino)piperidin-1-yl)phenyl)urea]	4.5	> 10000	> 10000	> 10000
CC(C)N1CCN(c2ccc(NC(=O)NC3(c4ccnc(C#N)n4)CCCCC3)cc2)CC1 [Example 142, 1-(1-(2-cyanopyrimidin-4-yl)cyclohexyl)-3-(4-(4-isopropylpiperazin-1-yl)phenyl)urea]	17.9	> 10000	> 10000	> 10000
CC(C)(C)N1CCN(c2ccc(NC(=O)NC3(c4ccnc(C#N)n4)CCCCC3)cc2)CC1 [Example 143, 1-(4-(4-(tert-butyl)piperazin-1-yl)phenyl)-3-(1-(2-cyanopyrimidin-4-yl)cyclohexyl)urea]	2.3	> 10000	> 10000	> 10000
N#Cc1nccc(C2(NC(=O)Nc3ccc(N4CCN(C5CC5)CC4)cc3)CCCCC2)n1 [Example 144, 1-(1-(2-cyanopyrimidin-4-yl)cyclohexyl)-3-(4-(4-cyclopropylpiperazin-1-yl)phenyl)urea]	18.3	> 10000	> 10000	> 10000
CCN1CCN(c2ccc(NC(=O)NC3(c4ccnc(C#N)n4)CCCCC3)cc2)CC1 [Example 146, 1-(1-(2-cyanopyrimidin-4-yl)cyclohexyl)-3-(4-(4-ethylpiperazin-1-yl)phenyl)urea]	3.9	> 10000	> 10000	> 10000
COCCNC(=O)c1ccc(-c2ccc(NC(=O)NC3(c4ccnc(C#N)n4)CCCCC3)cc2)cc1 [Example 147, 4′-(3-(1-(2-cyanopyrimidin-4-yl)cyclohexyl)ureido)-N-(2-methoxyethyl)-[1,1′-biphenyl]-4-carboxamide]	5.2	> 10000	> 10000	7930
N#Cc1nccc(C2(NC(=O)Nc3ccc(-c4ccc(S(=O)(=O)NC5CC5)cc4)cc3)CCCCC2)n1 [Example 148, 4′-(3-(1-(2-cyanopyrimidin-4-yl)cyclohexyl)ureido)-N-cyclopropyl-[1,1′-biphenyl]-4-sulfonamide]	16.8	> 10000	> 10000	8580
N#Cc1nccc(C2(NC(=O)Nc3ccc(-c4ccc(C(=O)NC5CC5)cc4)cc3)CCCCC2)n1 [Example 149, 4′-(3-(1-(2-cyanopyrimidin-4-yl)cyclohexyl)ureido)-N-cyclopropyl-[1,1′-biphenyl]-4-carboxamide]	6.4	> 10000	> 10000	7300
N#Cc1nccc(C2(NC(=O)Nc3ccc(-c4ccc(C(=O)N5CCCC5)c(Cl)c4)cc3)CCCCC2)n1 [Example 150, 1-(3′-chloro-4′-(pyrrolidin-1-carbonyl)-[1,1′-biphenyl]-4-yl)-3-(1-(2-cyanopyrimidin-4-yl)cyclohexyl)urea]	6.6	> 10000	8920	> 10000
CC(=O)NCc1ccc(-c2ccc(NC(=O)NC3(c4ccnc(C#N)n4)CCCCC3)cc2)cc1 [Example 151, N-((4′-(3-(1-(2-cyanopyrimidin-4-yl)cyclohexyl)ureido)-[1,1′-biphenyl]-4-yl)methyl)acetamide]	2	> 10000	> 10000	> 10000

Results, then the compound that gave them:

IC50 (cathepsin K) [nM]	IC50 (cathepsin B) [nM]	IC50 (cathepsin L) [nM]	IC50 (cathepsin S) [nM]	Compound
0.2	4800	6720	> 10000	CN(C)CCOc1ccc(-c2ccc(NC(=O)NC3(c4ccnc(C#N)n4)CCCCC3)cc2)cc1 [Example 153, 1-(1-(2-cyanopyrimidin-4-yl)cyclohexyl)-3-(4′-(2-(dimethylamino)ethoxy)-[1,1′-biphenyl]-4-yl)urea]
0.3	3210	4280	> 10000	CC(C)N1CCN(c2ccc(-c3ccc(NC(=O)NC4(c5ccnc(C#N)n5)CCCCC4)cc3)cc2)CC1 [Example 154, 1-(1-(2-cyanopyrimidin-4-yl)cyclohexyl)-3-(4′-(4-isopropylpiperazin-1-yl)-[1,1′-biphenyl]-4-yl)urea]
2	7340	> 10000	> 10000	CC(=O)N1CCN(c2ccc(-c3ccc(NC(=O)NC4(c5ccnc(C#N)n5)CCCCC4)cc3)cc2)CC1 [Example 155, 1-(4′(4-acetylpiperazin-1-yl)-[1,1′-biphenyl]-4-yl)-3-(1-(2-cyanopyrimidin-4-yl)cyclohexyl)urea]
4.3	> 10000	> 10000	> 10000	COC(=O)Cc1ccc(-c2ccc(NC(=O)NC3(c4ccnc(C#N)n4)CCCCC3)cc2)cc1 [Example 156, methyl 2-(4′-(3-(1-(2-cyanopyrimidin-4-yl)cyclohexyl)ureido)-[1,1′-biphenyl]-4-yl)acetate]
6.4	> 10000	> 10000	4620	COCCOCc1ccc(-c2ccc(NC(=O)NC3(c4ccnc(C#N)n4)CCCCC3)cc2)cc1 [Example 157, 1-(1-(2-cyanopyrimidin-4-yl)cyclohexyl)-3-(4′-((2-methoxyethoxy)methyl)-[1,1′-biphenyl]-4-yl)urea]
6.6	5650	> 10000	9430	N#Cc1nccc(C2(NC(=O)Nc3ccc(-c4ccc(C(=O)NCC5CCCO5)cc4)cc3)CCCCC2)n1 (stereo not drawn) [Example 158, 4′-(3-(1-(2-cyanopyrimidin-4-yl)cyclohexyl)ureido)-N-((tetrahydrofuran-2-yl)methyl)-[1,1′-biphenyl]-4-carboxamide]
0.6	1890	4090	> 10000	CN(C)CCNC(=O)c1ccc(-c2ccc(NC(=O)NC3(c4ccnc(C#N)n4)CCCCC3)cc2)cc1 [Example 159, 4′-(3-(1-(2-cyanopyrimidin-4-yl)cyclohexyl)ureido)-N-(2-(dimethylamino)ethyl)-[1,1′-biphenyl]-4-carboxamide]
0.1	1840	8810	> 10000	CCN1CCN(c2ccc(-c3ccc(NC(=O)NC4(c5ccnc(C#N)n5)CCCCC4)cc3)cc2)CC1 [Example 160, 1-(1-(2-cyanopyrimidin-4-yl)cyclohexyl)-3-(4′-(4-ethylpiperazin-1-yl)-[1,1′-biphenyl]-4-yl)urea]
